We go through one compound from patent US7084141B2, “Inhibitors of macrophase migration inhibitory factor and methods for identifying the same” (Avanir Pharmaceuticals, priority 2001, dated 2006).

Where two headings read alike, the source gives them in different places.

Assay [1] has as its system BALB/c mice sensitized with β-D-galactosamine. It counts as in vivo, mouse.
Assay [2] has as its target T1, MIF produced by THP-1 cells (Homo sapiens, UniProt P14174).
T1 construct: a test cell may express the MIF naturally (e.g., THP-1 cells); endogenous in cells; host or cells: THP-1 cells stimulated with LPS
T1 sequence (P14174 2-115 limits assumed): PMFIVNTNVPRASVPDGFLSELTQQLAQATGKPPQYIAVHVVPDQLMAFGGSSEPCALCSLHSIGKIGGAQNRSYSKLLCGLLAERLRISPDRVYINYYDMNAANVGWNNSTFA
Nature of the assay: ELISA of immunoreactive MIF from LPS stimulated THP-1 cells treated with compound. Type of assay: cell-based. As for the experimental part: Alternatively, ELISA may be preferred to detect and quantify the amount of MIF in cell supernatants. ELISA is preferred for detection in high throughput screening. Briefly, 96-well plates are coated with an anti-MIF antibody or anti-tag antibody, washed, and blocked with 2% BSA. Cell supernatant is then added to the wells. Following incubation and washing, a second antibody (e.g., to MIF) is added. The second antibody may be coupled to a label or detecting reagent, such as an enzyme or to biotin. Following further incubation, a developing reagent is added and the amount of MIF determined using an ELISA plate reader. The developing reagent is a substrate for the enzyme coupled to the second antibody (typically an anti-isotype antibody) or for the enzyme coupled to streptavidin. Suitable enzymes are well known in the art and include horseradish peroxidase, which acts upon a substrate (e.g., ABTS) resulting in a colorimetric reaction. It is recognized that rather than using a second antibody coupled to an enzyme, the anti-MIF antibody may be directly coupled to the horseradish peroxidase, or other equivalent detection reagent. If desired, cell supernatants may be concentrated to raise the detection level. Further, detection methods, such as ELISA and the like may be employed to monitor intracellular as well as extracellular levels of MIF. When intracellular levels are desired, a cell lysate is preferred. When extracellular levels are desired, media can be screened.
In another experiment (FIG. 2), varying concentrations of five different inhibitor analogs were added to LPS stimulated THP-1 cells and allowed to incubate overnight. The following day the amount of immunoreactive MIF detected was evaluated by ELISA. Compound 7e inhibited the ability of the antibody to recognize MIF in a dose dependent fashion with an ED50 of 2 μM, similar to the response obtained with analogs compound 7b and compound 7d.
In a further experiment (FIG. 3), the ability of compound 7e to decrease the immunoreactivity of MIF produced by THP-1 cells was determined. THP-1 cells were treated with 10 μg/ml of LPS and 10 μM of compound 7e was added at various times post-LPS stimulation and immunoreactivity monitored with an anti-MIF monoclonal. […] Thus, this experiment measures the activity of compounds or buffer alone controls on MIF detection when the compounds are initially added at various times to cell cultures and then the corresponding conditioned media samples are processed in a time dependent fashion thereafter.

The next assay relates to serum MIF. Nature of the assay: Serum MIF after LPS/galactosamine challenge in mice (ELISA). Type of assay: in vivo, mouse. Here is the method: Doses of lipopolysacchraride (LPS) were made fresh prior to each experiment. LPS (Escherichia Coli 0111:B4, Sigma) was reconstituted by adding 0.5% TEA (1 ml USP water+[…] Triethylamine (Pierce)) to a vial of 5 mg endotoxin. Once reconstituted, the solution was incubated at 37° C. for 30 minutes. Subsequently, the solution was sonicated in a 56–60° C. bath sonicator for 30 seconds 3 times. Following sonication the mixture was vortexed for 3 minutes continuously. The stock solution of LPS was then ready for use.
Ten 10-week-old (20±2 gram) female BALB/c mice (Charles River Laboratories, Kingston, N.Y.) were housed in a group of 5 per cage with free access to food and water and were acclimatized for at least one week prior to experimentation. On the day of experiment, mice were weighed and randomly distributed into group of 10 animals of equal mean body weight. […] Mouse serum Il-1β and TNF-α were measured by ELISA using a “mouse IL 1β immunoassay or mouse TNF-α immunoassay” kits (R&D System Minneapolis, Minn.) following manufacturer's direction. Serum MIF concentrations in mouse serum were quantified by a sandwich ELISA (ChemiKine MIF Kit, Chemicon, San Diego, Calif.). Samples were analyzed in duplicate, and results were averaged. […]

Regarding `Cn1c(=O)c([N+](=O)[O-])c(N2CCN(C(=O)c3ccco3)CC2)c2ccccc21` [compound 7e], in assay [1] (1 mg/kg LPS, 20 mg/kg compound, neutralized by 300 μg/kg human recombinant MIF), the “survival at 12 hours” value is listed as “significantly more (p<0.01) mice survive”. Further, the “75% Animal Death” value is over 100 h in assay [1] (LPS Dosage 0.1 mg/kg); over 100 h in assay [1] (LPS Dosage 0.5 mg/kg); over 100 h in assay [1] (LPS Dosage 2 mg/kg); 32.0 h in assay [1] (LPS Dosage 5 mg/kg); 18.0 h in assay [1] (LPS Dosage 10 mg/kg); 11.6 h in assay [1] (LPS Dosage 40 mg/kg). For the same compound, the survival in assay [1] (lethal dose of LPS (2, 5 and 10 mg/kg), 20 mg/kg i.p., control 6%, p=0.0004) was 47%. For the same compound, the “immunoreactivity of MIF with anti-MIF monoclonal” value in assay [2] (10 μM added at various times post-LPS (10 μg/ml)) was “immunoreactivity is rapidly lost”. Besides, the EC50 in assay [2] (LPS stimulated THP-1 cells, incubated overnight, read-out: ED50, inhibition of the ability of the antibody to recognize MIF (ELISA)) was 2000 nM. For the same compound, the “decrease in serum MIF” value with serum MIF (5 mg/kg LPS, four hours following treatment, p=0.0003) amounted to 60%. The “level of circulating MIF” value in the assay with serum MIF (10 mg/kg LPS, 20 mg/kg i.p., p=0.05) was “significant decrease in the level of circulating MIF”.
